Measured values from patent US9133195B2, “Quaternary ammonium salt compounds of spirocyclopiperazines, preparation methods and uses thereof” (Peking University, priority 2006, dated 2015).
Structures can show the parent of a compound that is named as a salt.

Tests used:
Kunming mice = experiment: Acetic acid-induced writhing test; type: in vivo; settings: 31.0 umol/kg s.c., acetic acid i.p. after 30 min, writhing counted for 10 min; for inhibition in vivo at 31 µmol/kg: Mus musculus, sc
Procedure: Kunming mice, male and female in half, were randomly divided into groups with 8 mice in each group. The following groups were established: the normal saline (NS) control group, in which normal saline was administered by subcutaneous injection (s.c.); the test groups, in which 31.0 umol/kg quaternary ammonium salts compounds of piperazines of the present invention was administered by s.c. All drugs were dissolved in normal saline before use. The drug was injected at the dose of 0.1 ml/10 g. After 30 min, 0.2 ml of 0.6% acetic acid was injected intraperitoneally for each mouse. After 2˜3 min, the writhing reactions such as abdominal constriction, stretch of body and hind limbs, and hip raise occurred. Five minutes after acetic acid injection, the numbers of writhing was counted for 10 min. The percentage of inhibition was determined by using the following formula (1): Inhibition %=[(The numbers of writhing of control group−the numbers of writhing of drag injection group)/the numbers of writhing of control group]×100% (1) 2 Experimental Results
This experiment was carried out according to that of Example 36.

mice [1] = experiment: Spontaneous motion in mice; type: in vivo; settings: 2.0 mg/kg
Procedure: (§1) All the following tests were carried out by using compound LXM-10 according to the routine methods.

mice [2] = experiment: Function of motion coordination (rota-rod); type: in vivo; settings: 2.0 mg/kg
Procedure: as §1
The effect of muscle-relaxed effect on the analgesic effect of LXM-10 was also excluded.

Body temperature in mice = type: in vivo; settings: 2.0 mg/kg
Procedure: as §1

Molecule: 8-(4-chloro-3-pyridyl)-5,8-diazaspiro[4.5]decane bromide [LXM-24]
- Inhibition(%) of writhing (Kunming mice): 46%

Molecule: c1ccc(N2CC[N+]3(CCCC3)CC2)cc1 (as salt: bromide) [LXM-18, 8-phenyl-5,8-diazaspiro[4.5]decane bromide]
- melting point: 208 to 209 °C

Molecule: COc1ccc(N2CC[N+]3(CCCC3)CC2)cc1 (as salt: bromide) [LXM-19, 8-(p-methoxyphenyl)-5,8-diazaspiro[4.5]decane bromide]
- melting point: 201 to 203 °C

Molecule: CC1CC[N+]2(CC1)CCN(CCc1ccccc1)CC2 (as salt: chloride) [LXM-6, 3-methyl-9-(β-phenylethyl)-6,9-diazaspiro[5.5]undecane chloride]
- melting point: 230 °C (dec.)

Molecule: C=CCN1CC[N+]2(CC1)CC(C)OC(C)C2 (stereo not shown) (as salt: chloride) [LXM-28, 2,4-dimethyl-9-allyl-3-oxo-6,9-diazaspiro[5.5]undecane chloride]
- melting point: 236 °C (dec.)

Molecule: CC1C[N+]2(CCN(C/C=C/c3ccccc3)CC2)CC(C)O1 (stereo not shown) (as salt: chloride) [LXM-30, 2,4-dimethyl-9-cinnamenyl-3-oxo-6,9-diazaspiro[5.5] undecane chloride]
- melting point: 266 to 268 °C

Molecule: CC1C[N+]2(CCN(CCc3ccccn3)CC2)CC(C)O1 (stereo not shown) (as salt: chloride) [LXM-31]
- melting point: 247 °C

Molecule: CN1C(=O)CN=C(c2ccccc2)c2cc(Cl)ccc21 [Diazepam, reference compound]
- Numbers of movement after treatment (mice [1]; 0.5 h): 5.37 ± 1.64
- Numbers of movement after treatment (mice [1]; 2.0 h): 10.8 ± 3.10
- Numbers of movement after treatment (mice [1]; 3.5 h): 18.2 ± 3.61
- Numbers of movement (mice [1]; before treatment): 51.5 ± 5.15
- Time of falling down from rota-rod after treatment (mice [2]; 0.5 h): 48.8 ± 14.0 s
- Time of falling down from rota-rod after treatment (mice [2]; 2.0 h): 73.3 ± 14.1 s
- Time of falling down from rota-rod after treatment (mice [2]; 3.5 h): 111.7 ± 6.70 s
- Time of falling down from rota-rod (mice [2]; before treatment): 102.5 ± 6.48 s
- Rectal temperature after treatment (Body temperature in mice; 0.5 h): 35.1 ± 0.26 °C
- Rectal temperature after treatment (Body temperature in mice; 2.0 h): 35.9 ± 0.35 °C
- Rectal temperature after treatment (Body temperature in mice; 3.5 h): 36.5 ± 0.31 °C
- Rectal temperature (Body temperature in mice; before treatment): 37.6 ± 0.17 °C

Molecule: CC1CC[N+]2(CC1)CCN(CCc1ccccc1)CC2 [LXM-6, 3-methyl-9-(β-phenylethyl)-6,9-diazaspiro[5.5]undecane chloride]
- inhibition in vivo at 31 µmol/kg (Kunming mice): 30%

Molecule: CC1C[N+]2(CCN(CCc3cccc(F)c3)CC2)CC(C)O1 (stereo not drawn) [LXM-8, 2,4-dimethyl-9-β-(m-fluorophenyl)ethyl-3-oxo-6,9-diazaspiro[5.5]undecane chloride]
- inhibition in vivo at 31 µmol/kg (Kunming mice): 55%

Molecule: CC1C[N+]2(CCN(CCc3cccc([N+](=O)[O-])c3)CC2)CC(C)S1 (stereo not drawn) [LXM-9, 2,4-dimethyl-9-β-(m-nitrophenyl)ethyl-3-thio-6,9-diazaspiro[5.5]undecane chloride]
- inhibition in vivo at 31 µmol/kg (Kunming mice): 62%

Molecule: Clc1ccc(N2CC[N+]3(CCCC3)CC2)nn1 [LXM-11, 8-(4-chloro-2,3-pyridazinyl)-5,8-diazaspiro[4.5]decane chloride]
- inhibition in vivo at 31 µmol/kg (Kunming mice): 44%

Molecule: O=[N+]([O-])c1cccc(N2CC[N+]3(CCCC3)CC2)c1 [LXM-16, 8-(m-nitrophenyl)-5,8-diazaspiro[4.5]decane bromide]
- inhibition in vivo at 31 µmol/kg (Kunming mice): 61%

Molecule: c1ccc(N2CC[N+]3(CCCC3)CC2)cc1 [LXM-18, 8-phenyl-5,8-diazaspiro[4.5]decane bromide]
- inhibition in vivo at 31 µmol/kg (Kunming mice): 20%

Molecule: COc1ccc(N2CC[N+]3(CCCC3)CC2)cc1 [LXM-19, 8-(p-methoxyphenyl)-5,8-diazaspiro[4.5]decane bromide]
- inhibition in vivo at 31 µmol/kg (Kunming mice): 56%

Molecule: Oc1cccc(N2CC[N+]3(CCCC3)CC2)c1 [LXM-20, 8-(m-hydroxyphenyl)-5,8-diazaspiro[4.5]decane bromide]
- inhibition in vivo at 31 µmol/kg (Kunming mice): 53%

Molecule: Fc1cccc(N2CC[N+]3(CCCC3)CC2)c1 [LXM-21, 8-(m-fluorophenyl)-5,8-diazaspiro[4.5]decane bromide]
- inhibition in vivo at 31 µmol/kg (Kunming mice): 47%

Molecule: N#Cc1cccc(N2CC[N+]3(CCCC3)CC2)c1 [LXM-22, 8-(m-cyanophenyl)-5,8-diazaspiro[4.5]decane bromide]
- inhibition in vivo at 31 µmol/kg (Kunming mice): 56%

Molecule: CCOC(=O)c1cccc(N2CC[N+]3(CCCC3)CC2)c1 [LXM-23, 8-(m-ethoxycarbonylphenyl)-5,8-diazaspiro[4.5]decane bromide]
- inhibition in vivo at 31 µmol/kg (Kunming mice): 39%

Molecule: c1cncc(N2CC[N+]3(CCCC3)CC2)c1 [LXM-25, 8-(3-pyridyl)-5,8-diazaspiro[4.5]decane bromide]
- inhibition in vivo at 31 µmol/kg (Kunming mice): 37%

Molecule: C=CCN1CC[N+]2(CC1)CC(C)OC(C)C2 (stereo not shown) [LXM-28, 2,4-dimethyl-9-allyl-3-oxo-6,9-diazaspiro[5.5]undecane chloride]
- inhibition in vivo at 31 µmol/kg (Kunming mice): 49%

Molecule: CC1C[N+]2(CCN(C/C=C/c3ccccc3)CC2)CC(C)O1 (stereo not shown) [LXM-30, 2,4-dimethyl-9-cinnamenyl-3-oxo-6,9-diazaspiro[5.5] undecane chloride]
- inhibition in vivo at 31 µmol/kg (Kunming mice): 43%

Molecule: CC1C[N+]2(CCN(CCc3ccccn3)CC2)CC(C)O1 (stereo not shown) [LXM-31]
- inhibition in vivo at 31 µmol/kg (Kunming mice): 58%
